As a reminder, the solubility is the dissolved amount per volume that the medium holds.

Where two headings read alike, the source gives them in different places.

Data on 2 compounds can be found in patent US8569039B2, “Ethanol resistance Saccharomyces cerevisiae GP-01 by protoplast fusion, method for manufacturing thereof, method for manufacturing yeast containing high content of bio organic germanium by using Saccharomyces cerevisiae GP-01 and high water soluble sodium metagermanate as a germanium source” (Geranti Pharm Ltd., priority 2008, dated 2013).

Series [1] relates to Saccharomyces Cerevisiae (KCTC 7904). Kind of series: Bio-germanium content inoculated into the yeast by content of germanium in the solution. Format: cell-based. To be noted: KCTC7904; for Bio-germanium content inoculated into the yeast: 20 hours, pH 10, 40° C.
The subject of series [2] is yeast GP-01 (KCTC11399BP). Described as above. The series is classed as cell-based, Saccharomyces Cerevisiae. To be noted: for Bio-germanium content inoculated into the yeast: 20 hours, pH 10, 40° C. How it is done:
The broth medium containing the mutated Saccharomyces Cerevisiae, yeast GP-01 (KCTC11399BP), was centrifuged to collect the palletized yeast. The collected pelletized yeast was added in each of the solutions of sodium metagermanate (Na2GeO3) with different concentrations of germanium. The prepared solutions were cultivated for 20 hours at pH 10 and temperature 40° C.
In order to determine the content of bio-germanium in the yeast GP-01, 1 g of the cultivated and dried yeast GP-01 was added in 30 ml of nitric acid. The obtained sample was heated to be decomposed. After adjusting pH value to 6, 1 ml of the sample was mixed with 1 ml of phenylfluorone and 1 ml of cyclo nucleic acid. The obtained sample was stationary for 30 hours at 30° C. and then determined the content of germanium in the yeast GP-01 by using UV spectrophotometer at 525 nm. […]

For series [3], the system named is yeast GP-01 (KCTC 11399BP). Kind of series: Bio-germanium content in yeast by mixing ratio of yeast and Ge solution. The series is classed as cell-based, Saccharomyces Cerevisiae. To be noted: 20 hours, pH 10, 40° C. The protocol: In order to determine the content of bio-germanium in the yeast GP-01, 1 g of the cultivated and dried yeast GP-01 was added in 30 ml of nitric acid. The obtained sample was heated to be decomposed. After adjusting pH value to 6, 1 ml of the sample was mixed with 1 ml of phenylfluorone and 1 ml of cyclo nucleic acid. The obtained sample was stationary for 30 hours at 30° C. and then determined the content of germanium in the yeast GP-01 by using UV spectrophotometer at 525 nm.
The broth containing the ethanol-resistant yeast GP-01 as prepared in the Example 1 was centrifuged to collect the yeast. […] The obtained solutions were cultivated for 20 hours at pH 10 and temperature 40° C.
Also, as a control, the same procedure described in Example 3 was performed, except that a solution of (inorganic) germanium dioxide (GeO2) was used instead of sodium metagermanate (Na2GeO3).
The contents of germanium in the yeast GP-01 (KCTC 11399BP) was measured by the same method as Example 2.

For series [4] the following is noted: 25° C.; cited from earlier work.
The test system of series [5] is Saccharomyces Cerevisiae (KCTC 7904). To be noted: KCTC7904. The protocol:
(§1) In order to examine the ethanol resistance of the obtained yeast GP-01, the ethanol, which is the inhibitor of the growth, was added by the concentrations and the status of the growth of the yeast was checked.

Series [6] concerns yeast GP-01 (KCTC 11399BP). How it is done: as §1
[7] abbreviates: germanium in the solution 1,000 ppm.
[8] abbreviates: germanium in the solution 2,000 ppm.
Setting [9] is: germanium in the solution 3,000 ppm.
The mark [10] stands for this setting: germanium in the solution 4,000 ppm.
Where [11] appears, read: germanium in the solution 5,000 ppm.

In the case of “germanium dioxide [GeO2 solution, reference compound]”, the “Yield (%) of germanium inoculated” value is on record as 78% in series [1] (setting [7]); 44% in series [1] (setting [8]); 33% in series [1] (setting [9]); 36% in series [1] (setting [10]); 30% in series [1] (setting [11]); 87% in series [2] (setting [7]). For the same compound, the “Yield (%) of germanium inoculated” value in series [2] (setting [8]) was 89%; in series [2] (setting [9]), 89%; in series [2] (setting [10]), 96%; in series [2] (setting [11]), 95%. Moreover, the “Bio-germanium content inoculated into the yeast” value in series [1] (setting [7]) is on record as 780 ppm; in series [1] (setting [8]), 870 ppm; in series [1] (setting [9]), 980 ppm; in series [1] (setting [10]) it was 1,430 ppm; in series [1] (setting [11]) it was 1,500 ppm; in series [2] (setting [7]) it was 870 ppm. In addition, the “Bio-germanium content inoculated into the yeast” value in series [2] (setting [8]) was 1,786 ppm; in series [2] (setting [9]) it was 2,670 ppm; in series [2] (setting [10]), 3,850 ppm; in series [2] (setting [11]), 4,753 ppm. In addition, the “Bio-germanium content in yeast GP-01” value in series [3] (mixing ratio yeast GP-01:Ge solution 1:0.2) is 1,920 ppm; in series [3] (mixing ratio yeast GP-01:Ge solution 1:0.5), 5,670 ppm; in series [3] (mixing ratio yeast GP-01:Ge solution 1:1), 4,780 ppm; in series [3] (mixing ratio yeast GP-01:Ge solution 1:2) it was 2,500 ppm; in series [3] (mixing ratio yeast GP-01:Ge solution 1:3), 1,700 ppm. Also, the solubility in series [4] was 5200 µg/mL.

In the case of `CCO` [ethanol], the “Growth status OD(660 nm, 1/20)” value in series [5] (ethanol 6.0 % v/v) is listed as 0.07; in series [5] (ethanol 8.0 % v/v) it was 0.06; in series [5] (ethanol 10.0 % v/v), 0.05; in series [6] (GP-01 1st investigation, ethanol 6.0 % v/v) it was 0.15; in series [6] (GP-01 1st investigation, ethanol 8.0 % v/v) it was 0.14; in series [6] (GP-01 1st investigation, ethanol 10.0 % v/v), 0.16. In addition, the “Growth status OD(660 nm, 1/20)” value came out at 0.12 in series [6] (GP-01 1st investigation, ethanol 15.0 % v/v); 0.14 in series [6] (GP-01 2nd investigation, ethanol 6.0 % v/v); 0.20 in series [6] (GP-01 2nd investigation, ethanol 8.0 % v/v); 0.19 in series [6] (GP-01 2nd investigation, ethanol 10.0 % v/v); 0.08 in series [6] (GP-01 2nd investigation, ethanol 15.0 % v/v); 0.20 in series [6] (GP-01 3rd investigation, ethanol 6.0 % v/v). For the same compound, the “Growth status OD(660 nm, 1/20)” value in series [6] (GP-01 3rd investigation, ethanol 8.0 % v/v) came to 0.23; in series [6] (GP-01 3rd investigation, ethanol 10.0 % v/v), 0.24; in series [6] (GP-01 3rd investigation, ethanol 15.0 % v/v) it was 0.15.
